Laboratory results as given in patent EP0717040A1, “Thiazine or thiazepine derivatives which inhibit NOS” (Japan Tobacco Inc., priority 1994, dated 1996).
Where a name gives a salt, the structure may show the parent alone.

molecular target: T1, inducible NO synthase (iNOS) (Rattus norvegicus, UniProt Q06518); assay: Activity to inhibit inducible NO synthase (iNOS) derived from rat macrophages; conversion of [3H]-L-arginine to [3H]-L-citrulline; format: biochemical; set-up: iNOS was extracted from the macrophages which have been treated with lipopolysaccharide and interferon-γ; endogenous in cells; host or cells: rat peritoneal macrophages treated with lipopolysaccharide and interferon-γ; conditions: not given
Experimental: Activity to inhibit inducible NO synthase (iNOS) derived from rat macrophages
According to partly modified method of Y. Yui et al.(J. Biol. Chem., 266 (19), 12544-12547 (1991)), an iNOS fraction was prepared by applying lipopolysaccharide and interferon-γ to peritoneal macrophages. Thereafter, its enzymatic activity was measured based on the conversion of [³H]-L-arginine to [³H]-L-citrulline, in the same manner as in the case of cNOS.
To the iNOS thus extracted, a 50 mM Tris-HCl buffer solution (pH 7.4) containing 150 µM L-arginine, 5 mM NADPH, 5 mM DTT, 0.5 mM 5,6,7,8-tetrahydro-L-biopterin and 5 µM FAD was added together with a test compound and [³H]-L-arginine. The mixture was incubated for 30 minutes at 37°C. Thereafter, the reaction was terminated by adding a 25 mM sodium acetate buffer solution (pH 5.5) containing 1.25 mM L-citrulline, 2.5 mM EDTA and 0.25 mM EGTA. The reaction solution was passed through a cation-exchange resin. The obtained eluate was combined with the additional eluate obtained thereafter by eluting with water, and the radioactivity of the combined eluate was measured. The inhibition rate of the test compound on iNOS was calculated in the same manner as in Test 1. The concentration (IC₅₀) of the test compound required for inhibiting 50 % of the enzyme activity, were calculated.

SMILES	IC50 [nM]
NC1=NC(OCCc2ccccc2)CCS1 (stereo not shown) [Example 25, Bis(2-amino-5,6-dihydro-4-(2-phenyl)ethyloxy-4H-1,3-thiazine) fumarate]	300
CCOC1CCSC(N)=N1 (stereo not shown) [Example 21, Bis(2-amino-4-ethoxy-5,6-dihydro-4H-1,3-thiazine) fumarate]	30
CC1CC(OCc2ccccc2)N=C(N)S1 (stereo not shown) [Example 27, Bis(2-amino-4-benzyloxy-5,6-dihydro-6-methyl-4H-1,3-thiazine), fumarate]	400
NC1=NC(OCc2ccccc2)CCS1 (stereo not shown) [Example 22, Bis(2-amino-4-benzyloxy-5,6-dihydro-4H-1,3-thiazine) fumarate]	600
CC1CN=C(N)SC1 (stereo not shown) [Example 28, 2-amino-5,6-dihyro-5-methyl-4H-1,3-thiazine hydrobromide]	200
COC1CCSC(N)=N1 (stereo not shown) [Example 18, Bis(2-amino-5,6-dihydro-4-methoxy-4H-1,3-thiazine) fumarate]	10
CC1CCCSC(N)=N1 (stereo not shown) [Example 12, Bis(2-amino-4,5,6,7-tetrahydro-4-methyl-1,3-thiazepine) fumarate]	70
CCOC1CC(C)SC(N)=N1 (stereo not shown) [Example 26, Bis(2-amino-4-ethoxy-5,6-dihydro-6-methyl-4H-1,3-thiazine) fumarate]	90
NC1=NCCS1 [Comparative Example 1, 2-aminothiazoline, reference compound]	2000
NC1=N[C@@H](Cc2ccccc2)CCS1 [Example 10, (S)-2-amino-4-benzyl-5,6-dihydro-4H-1,3-thiazine hydrobromide]	600

same assay, conditions: iNOS from peritoneal macrophages treated with lipopolysaccharide and interferon-γ, 150 µM L-arginine, 30 minutes at 37°C; read-out: IC₅₀

SMILES	IC50 [nM]
Br.COC[C@@H]1CCSC(N)=N1 [Example 30, (S)-2-amino-5,6-dihydro-4-methoxymethyl-4H-1,3-thiazine hydrobromide]	20
CC1(C)CCN=C(N)S1 [Example 29, 2-amino-5,6-dihydro-6,6-dimethyl-4H-1,3-thiazine hydrochloride]	200
CC1(C)CN=C(N)SC1 [Example 16, 2-amino-5,6-dihydro-5,5-dimethyl-4H-1,3-thiazine hydrobromide]	500

molecular target: T1, inducible NO synthase (iNOS); assay: Effect on rat-paw carrageenin edema model by inhibition of iNOS; format: in vivo; conditions: oral, 1 hour prior to carrageenin; paw volume 4 hours after induction
Experimental: Effect on rat-paw carrageenin edema model by inhibition of inducible NO synthase (iNOS)
To a rat's left leg, 1 % carrageenin solution was subcutaneously administered to induce a paw edema. 4 hours after the induction, paw volume was measured. A test compound was orally administered 1 hour prior to the carrageenin administration. The suppression effect of the test compound was determined.

SMILES	Suppression Effect
CCOC1CCSC(N)=N1 (stereo not shown) [Example 21, Bis(2-amino-4-ethoxy-5,6-dihydro-4H-1,3-thiazine) fumarate]	○

same assay, conditions: rat; oral, 1 hour prior to carrageenin; paw volume 4 hours after induction; read-out: Suppression Effect (ED₅₀)

SMILES	ED50 [mg/kg]
CCOC1CCSC(N)=N1 (stereo not shown) [Example 21, Bis(2-amino-4-ethoxy-5,6-dihydro-4H-1,3-thiazine) fumarate]	0.5

molecular target: T2, constitutive NO synthase (cNOS) (Rattus norvegicus, UniProt P29476); assay: Activity to inhibit constitutive NO synthase (cNOS) derived from rat cerebellum; conversion of [3H]-L-arginine to [3H]-L-citrulline; format: biochemical; conditions: not given
T2 construct: cNOS was extracted from a rat cerebellum; from tissue; host or cells: rat cerebellum
Experimental: Activity to inhibit constitutive NO synthase (cNOS) derived from rat cerebellum
The inhibition activity was tested according to a method of P. A. Bush et al. (Biochem, Biophys, Res. Commun., 185, 960-966 (1992)), using [³H]-L-arginine as a substrate and taking the conversion of [³H]-L-arginine to [³H]-L-citrulline as an index of the enzyme activity.
The test was conducted as follows: First, cNOS was extracted from a rat cerebellum with a 50 mM Tris-HCl buffer solution (pH 7.4) which contains 0.1 mM EDTA (ethylenediamine tetraacetate), 0.1 mM EGTA (ethyleneglycol bis(β-aminoethyl ether)-tetraacetate), 0.5 mM DTT (dithiothreitol), 1 µM PMSF (phenylmethylsulfonyl fluoride), 1 µM bestatin A, and 1 µM leupeptin. To the cNOS thus extracted, a 50 mM Tris-HCl buffer solution (pH 7.4) containing 10 µM L-arginine, 10 µM NADPH, 2 mM calcium chloride and calmoduline (0.1 µg), together with a test compound and [³H]-L-arginine were added. The mixture was incubated for 10 minutes at 25°C. The reaction was terminated by adding 20 mM sodium acetate buffer solution (pH 5.5) containing 1 mM L-citrulline, 2 mM EDTA, and 0.2 mM EGTA. The reaction solution was passed through a cation-exchange resin. This eluate was combined with another eluate which was obtained thereafter by eluting with water. To the combined eluate, a liquid scintillation cocktail was further added and its radioactivity (A) was measured. At the same time, the radioactivity (B) with respect to the case where the test compound was not added and the radioactivity (C) with respect to the case where an enzyme fraction was not added, were respectively measured. Then, the rate of cNOS inhibition was calculated in accordance with the following equation. The concentration (IC₅₀), at which the test compound can inhibit 50 % of the enzyme activity, were also calculated. Inhibition rate (%) = {1 - (A - C/B - C)} × 100 [formula]

SMILES	IC50 [nM]
NC1=NC(OCCc2ccccc2)CCS1 (stereo not shown) [Example 25, Bis(2-amino-5,6-dihydro-4-(2-phenyl)ethyloxy-4H-1,3-thiazine) fumarate]	100
CCOC1CCSC(N)=N1 (stereo not shown) [Example 21, Bis(2-amino-4-ethoxy-5,6-dihydro-4H-1,3-thiazine) fumarate]	20
CC1CC(OCc2ccccc2)N=C(N)S1 (stereo not shown) [Example 27, Bis(2-amino-4-benzyloxy-5,6-dihydro-6-methyl-4H-1,3-thiazine), fumarate]	400
NC1=NC(OCc2ccccc2)CCS1 (stereo not shown) [Example 22, Bis(2-amino-4-benzyloxy-5,6-dihydro-4H-1,3-thiazine) fumarate]	100
CC1CN=C(N)SC1 (stereo not shown) [Example 28, 2-amino-5,6-dihyro-5-methyl-4H-1,3-thiazine hydrobromide]	100
COC1CCSC(N)=N1 (stereo not shown) [Example 18, Bis(2-amino-5,6-dihydro-4-methoxy-4H-1,3-thiazine) fumarate]	20
CC1CCCSC(N)=N1 (stereo not shown) [Example 12, Bis(2-amino-4,5,6,7-tetrahydro-4-methyl-1,3-thiazepine) fumarate]	100
CCOC1CC(C)SC(N)=N1 (stereo not shown) [Example 26, Bis(2-amino-4-ethoxy-5,6-dihydro-6-methyl-4H-1,3-thiazine) fumarate]	80
NC1=N[C@@H](Cc2ccccc2)CCS1 [Example 10, (S)-2-amino-4-benzyl-5,6-dihydro-4H-1,3-thiazine hydrobromide]	30

same assay, conditions: cNOS extracted from rat cerebellum, 10 µM L-arginine, 10 minutes at 25°C; read-out: IC₅₀

SMILES	IC50 [nM]
Br.COC[C@@H]1CCSC(N)=N1 [Example 30, (S)-2-amino-5,6-dihydro-4-methoxymethyl-4H-1,3-thiazine hydrobromide]	30
CC1(C)CCN=C(N)S1 [Example 29, 2-amino-5,6-dihydro-6,6-dimethyl-4H-1,3-thiazine hydrochloride]	100
CC1(C)CN=C(N)SC1 [Example 16, 2-amino-5,6-dihydro-5,5-dimethyl-4H-1,3-thiazine hydrobromide]	200

molecular target: T3, neuronal NOS (nNOS) (Rattus norvegicus, UniProt P29476); assay: Effect on rat cerebral ischemia model by inhibition of nNOS: reperfusion model; format: in vivo; conditions: dose 3 µg/kg intravenously, 10 minutes before occlusion, immediately before and 3 hours after reperfusion; infarct area after 48 hours
T3 construct: from tissue; host or cells: living rat (brain)
Description: Effect on rat cerebral ischemia model by inhibition of neuronal NOS (nNOS): reperfusion model
A rat (weight: 300 g) was fasted overnight and a middle cerebral artery of the rat was occluded and then reperfused to prepare a cerebral ischemia model, according to the method of Koizumi et al. (Jpn. J. Stroke, 8, 1-8 (1986)). More specifically, a rat breathing naturally was immobilized under anesthesia with a laughing gas - oxygen mixed gas and halothane, and then, underwent cervical median dissection. A silicon-coated nylon thread was inserted into an internal carotid artery from a branched portion at which a right external carotid artery and the internal carotid artery is divided, thereby blocking the middle cerebral artery for 1.5 hours. Thereafter, the occluding of the middle cerebral artery was reperfused by removing a thread. After 48 hours, 6 coronal sections were prepared and stained by means of a triphenyltetrazolium chloride method. Non-stained portions were determined as infarct area. The test compound was intravenously injected 10 minutes before the occlusion of middle cerebral artery, immediately before, and 3 hours after reperfusion. The inhibitory effect of each compound was determined.

SMILES	Inhibitory Effect
CCOC1CCSC(N)=N1 (stereo not shown) [Example 21, Bis(2-amino-4-ethoxy-5,6-dihydro-4H-1,3-thiazine) fumarate]	○ (3)

same assay, conditions: dose 10 µg/kg intravenously, 10 minutes before occlusion, immediately before and 3 hours after reperfusion; infarct area after 48 hours

SMILES	Inhibitory Effect
Br.COC[C@@H]1CCSC(N)=N1 [Example 30, (S)-2-amino-5,6-dihydro-4-methoxymethyl-4H-1,3-thiazine hydrobromide]	○ (10)

molecular target: T4, endothelium nitric oxide synthase (eNOS) (Rattus norvegicus, UniProt Q62600); assay: Blood pressure elevating activity in rat by inhibition of eNOS; format: in vivo; conditions: dose to elevate mean blood pressure by 25 mmHg; anesthetized rat, administered via femoral vein
T4 construct: from tissue; host or cells: living anesthetized rat
Experimental: Blood pressure elevating activity in rat by inhibition of endothelium nitric oxide synthase (eNOS) A rat was anesthetized with by peritoneal injection of sodium barbital (300 mg/kg) and catheters were inserted into a femoral artery and a femoral vein. Blood pressure was measured through the catheter inserted in the femoral artery and a test compound was administered through the catheter inserted in the femoral vein. […]

SMILES	ED₂₅ [mg/kg]
Br.COC[C@@H]1CCSC(N)=N1 [Example 30, (S)-2-amino-5,6-dihydro-4-methoxymethyl-4H-1,3-thiazine hydrobromide]	0.15
CCOC1CCSC(N)=N1 (stereo not shown) [Example 21, Bis(2-amino-4-ethoxy-5,6-dihydro-4H-1,3-thiazine) fumarate]	0.06
